# Target: T1, catechol-O-methyltransferase (COMT) (Homo sapiens, UniProt P21964)
# T1 construct: M51A variant) was expressed in HEK 293F cells
# T1 sequence (P21964 52-271 limits assumed): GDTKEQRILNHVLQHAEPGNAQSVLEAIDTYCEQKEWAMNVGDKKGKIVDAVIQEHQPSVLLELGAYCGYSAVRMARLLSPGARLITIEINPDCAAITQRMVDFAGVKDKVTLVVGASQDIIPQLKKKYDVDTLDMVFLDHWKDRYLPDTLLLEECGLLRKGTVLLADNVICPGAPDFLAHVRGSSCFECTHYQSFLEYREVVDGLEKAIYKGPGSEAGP
# Assay: COMT inhibition assay (HTRF, production of S-adenosyl homocysteine)
# Format: biochemical
# Settings: recombinant human COMT, HTRF SAH production; MB-COMT or S-COMT not stated for Table 1
# Description: The ability of compounds to inhibit the activity of catechol-O-methyltransferase (COMT) was determined by a homogenous time-resolved fluorescent (HTRF) assay (Lina et al, 2012; kit from CisBio, Codolet, France). This assay measures the production of S-adenosyl homocysteine (SAH) from the methyl donor S-adenosyl methionine. Recombinant human membrane bound COMT (MB-COMT; M51A variant) was expressed in HEK 293F cells using 293Fectin (Life Technologies, Gent, Belgium) and membranes prepared. The membranes were re-suspended in buffer (20 mM Tris/HCl pH 7; 10 mM glycerol; 2 mM MgCl2; 10 mM NaCl), aliquoted and stored at −80° C. Recombinant human soluble COMT(S-COMT), Va1158 variant and a hexa-His tag on the N-terminus, was purified using Ni-NTA chromatography, the His tag removed and stored in buffer as above.
# For the human MB-COMT assay, membranes (62 ng/well) were incubated with SAM (20 μM final, CisBio) and dopamine (1.5 μM final; Sigma H8502, Diegem, Belgium) in the presence or absence of varying concentrations (typically 10 concentrations ranging from 10 μM to 0.1 nM) of compound for 40 min at 37° C. in 384-well microtitre plates (10 μl per well final volume). The reaction was terminated by the addition of acylation buffer and the amount of SAH produced determined according to manufacturer's instructions. Specific inhibition as that inhibited by a high concentration of tolcapone (10 μM; synthesised at UCB) and all experiments were validated using a control curve to tolcapone.
# The human S-COMT assay was performed as above except that 0.15 ng enzyme/well was incubated with SAM (20 μM final) and dopamine (100 μM final) for 15 min at 37° C. and SAH production determined.
# HTRF readings were performed using a Perkin Elmer Envision and results expressed as concentration of SAH produced using a standard curve. Results were analysed using non-linear regression to the 4-parameter logistic equation and pIC50 (−log 10 concentration of drug which inhibits enzyme activity/SAH production by 50%) determined.
row,Compound,"Activity range (pIC50, COMT inhibition)"
1,"O=S(=O)(c1ccc(O)c2ncccc12)N1CCCC1c1cccnc1 (stereo not shown) [Example 72, 5-[2-(3-pyridyl)pyrrolidin-1-yl]sulfonylquinolin-8-ol]",++ (a pIC50 of from about great than 6 to 7)
2,"O=S(=O)(c1ccc(O)c2ncccc12)N1CCC(c2ccccc2)CC1 [Example 73, 5-[(4-phenyl-1-piperidyl)sulfonyl]quinolin-8-ol]",+++ (a pIC50 of above about 7)
3,"O=S(=O)(c1ccc(O)c2ncccc12)N1CCCC1c1ccc(F)cc1 (stereo not shown) [Example 74, 5-[2-(4-fluorophenyl)pyrrolidin-1-yl]sulfonylquinolin-8-ol]",+++ (a pIC50 of above about 7)
4,"O=S(=O)(c1ccc(O)c2ncccc12)N1CCCC1Cc1ccccc1 (stereo not shown) [Example 75, 5-(2-benzylpyrrolidin-1-yl)sulfonylquinolin-8-ol]",+++ (a pIC50 of above about 7)
5,"O=S(=O)(c1ccc(O)c2ncccc12)N1CCCC1C1CCCCC1 (stereo not shown) [Example 76, 5-(2-cyclohexylpyrrolidin-1-yl)sulfonylquinolin-8-ol]",+++ (a pIC50 of above about 7)
6,"COc1ccc(C2CCCN2S(=O)(=O)c2ccc(O)c3ncccc23)cc1 (stereo not shown) [Example 77, 5-[2-(4-methoxyphenyl)pyrrolidin-1-yl]sulfonylquinolin-8-ol]",+++ (a pIC50 of above about 7)
7,"CC(C)C1CCCN1S(=O)(=O)c1ccc(O)c2ncccc12 (stereo not shown) [Example 78, 5-(2-isopropylpyrrolidin-1-yl)sulfonylquinolin-8-ol]",+++ (a pIC50 of above about 7)
8,"O=S(=O)(c1ccc(O)c2ncccc12)N1CCCC1c1ccncc1 (stereo not shown) [Example 79, 5-[2-(4-pyridyl)pyrrolidin-1-yl]sulfonylquinolin-8-ol]",++ (a pIC50 of from about great than 6 to 7)
9,"O=S(=O)(c1ccc(O)c2ncccc12)N1CCCC1c1ccccn1 (stereo not shown) [Example 80, 5-[2-(2-pyridyl)pyrrolidin-1-yl]sulfonylquinolin-8-ol]",++ (a pIC50 of from about great than 6 to 7)
10,"O=S(=O)(c1ccc(O)c2ncccc12)N1CCCC1c1ccccc1C(F)(F)F (stereo not shown) [Example 81, 5-[2-[2-(trifluoromethyl)phenyl]pyrrolidin-1-yl]sulfonylquinolin-8-ol]",++ (a pIC50 of from about great than 6 to 7)
11,"CC(C)CC1CCCN1S(=O)(=O)c1ccc(O)c2ncccc12 (stereo not shown) [Example 82, 5-(2-isobutylpyrrolidin-1-yl)sulfonylquinolin-8-ol]",+++ (a pIC50 of above about 7)
12,"O=S(=O)(c1ccc(O)c2ncccc12)N1CCC(O)(c2ccccc2)CC1 [Example 83, 5-[(4-hydroxy-4-phenyl-1-piperidyl)sulfonyl]quinolin-8-ol]",+++ (a pIC50 of above about 7)
13,"O=S(=O)(c1ccc(O)c2ncccc12)N1CCC(Cc2ccccc2)CC1 [Example 84, 5-[(4-benzyl-1-piperidyl)sulfonyl]quinolin-8-ol]",+++ (a pIC50 of above about 7)
14,"O=C(c1ccccc1)C1CCN(S(=O)(=O)c2ccc(O)c3ncccc23)CC1 [Example 85, [1-[(8-hydroxy-5-quinolyl)sulfonyl]-4-piperidyl]-phenyl-methanone]",+++ (a pIC50 of above about 7)
15,"CC(=O)C1(c2ccccc2)CCN(S(=O)(=O)c2ccc(O)c3ncccc23)CC1 [Example 86, 1-[1-[(8-hydroxy-5-quinolyl)sulfonyl]-4-phenyl-4-piperidyl]ethanone]",+++ (a pIC50 of above about 7)
16,"O=C1NCN(c2ccccc2)C12CCN(S(=O)(=O)c1ccc(O)c3ncccc13)CC2 [Example 87, 8-[(8-hydroxy-5-quinolyl)sulfonyl]-1-phenyl-1,3,8-triazaspiro[4.5]decan-4-one]",+++ (a pIC50 of above about 7)

# — patent US10035799B2, “COMT inhibiting methods and compositions” (Lieber Institute for Brain Development, priority 2015, dated 2018)
